Laboratory results from PubChem BioAssay AID2060504 (Molecular Pharmacology Branch, DTP, NCI, 2025).
pIC50: −log10 of the molar value. Values belong to the compound of their own block, whether it stands above or below them.

Tested on: 636577-100-R-J1-PDC complex spheroid viability
Assay: Anticancer human tumor 636577-100-R-J1-PDC patient-derived endometrial adenocarcinoma cell line growth inhibition [GQUAD]
Conditions: for pIC50: curve of first compound; for viability, T/C: stronger effect = lower value
Summary of the method: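 Tumor cells were grown as complex spheroids with HUVEC endothelial cells and mesenchymal stem cells as stroma. G-quadruplex stabilizers were combined with targeted agents over half-log dilutions from near the clinical Cmax, or from 10 microM.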

[1] = second compound 0.0316 µM, first compound 0.0316 µM
[2] = second compound 0.0316 µM, first compound 0.1 µM
[3] = second compound 0.0316 µM, first compound 0.316 µM
[4] = second compound 0.0316 µM, first compound 1 µM
[5] = second compound 0.0316 µM, first compound 3.16 µM
[6] = second compound 0.0316 µM, first compound 10 µM
[7] = second compound 0.1 µM, first compound 0.0316 µM
[8] = second compound 0.1 µM, first compound 0.1 µM
[9] = second compound 0.1 µM, first compound 0.316 µM
[10] = second compound 0.1 µM, first compound 1 µM
[11] = second compound 0.1 µM, first compound 3.16 µM
[12] = second compound 0.1 µM, first compound 10 µM
[13] = second compound 0.316 µM, first compound 0.0316 µM
[14] = second compound 0.316 µM, first compound 0.1 µM
[15] = second compound 0.316 µM, first compound 0.316 µM
[16] = second compound 0.316 µM, first compound 1 µM
[17] = second compound 0.316 µM, first compound 3.16 µM
[18] = second compound 0.316 µM, first compound 10 µM
[19] = second compound 1 µM, first compound 0.0316 µM
[20] = second compound 1 µM, first compound 0.1 µM
[21] = second compound 1 µM, first compound 0.316 µM
[22] = second compound 1 µM, first compound 1 µM
[23] = second compound 1 µM, first compound 3.16 µM
[24] = second compound 1 µM, first compound 10 µM
[25] = second compound 3.16 µM, first compound 0.0316 µM
[26] = second compound 3.16 µM, first compound 0.1 µM
[27] = second compound 3.16 µM, first compound 0.316 µM
[28] = second compound 3.16 µM, first compound 1 µM
[29] = second compound 3.16 µM, first compound 3.16 µM
[30] = second compound 3.16 µM, first compound 10 µM
[31] = second compound 10 µM, first compound 0.0316 µM
[32] = second compound 10 µM, first compound 0.1 µM
[33] = second compound 10 µM, first compound 0.316 µM
[34] = second compound 10 µM, first compound 1 µM
[35] = second compound 10 µM, first compound 3.16 µM
[36] = second compound 10 µM, first compound 10 µM
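Further: viability read after seven days of drug exposure.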
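Wherever viability, T/C is given: luminescence signal used as a proxy for viable cells; 100% = DMSO vehicle control wells.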

pIC50 (second compound 0.0316 µM): > 7.50 | pIC50 (second compound 0.1 µM): > 7.50 | pIC50 (second compound 0.316 µM): > 7.50 | pIC50 (second compound 1 µM): > 7.50 | pIC50 (second compound 3.16 µM): > 7.50 | pIC50 (second compound 10 µM): > 7.50
Structure (SMILES): COc1cccc2c1C(=O)c1c(O)c3c(c(O)c1C2=O)CC(O)(C(=O)CO)CC3OC1CC(N)C(O)C(C)O1 (stereo unspecified) + Cc1cnc(CNC(=O)c2c(=O)c3ccc(N4CCCN(C)CC4)nc3n3c2sc2ccccc23)cn1
viability, T/C [1]: 22.1% | viability, T/C [2]: 16.6% | viability, T/C [3]: 15.6% | viability, T/C [4]: 8.2% | viability, T/C [5]: 0.23% | viability, T/C [6]: 0.38% | viability, T/C [7]: 19.2% | viability, T/C [8]: 15.4% | viability, T/C [9]: 13.4% | viability, T/C [10]: 7.3% | viability, T/C [11]: 0.09% | viability, T/C [12]: 0.33% | viability, T/C [13]: 19% | viability, T/C [14]: 16.6% | viability, T/C [15]: 13.1% | viability, T/C [16]: 7.79% | viability, T/C [17]: 0.05% | viability, T/C [18]: 0.28% | viability, T/C [19]: 18.3% | viability, T/C [20]: 15.7% | viability, T/C [21]: 12.5% | viability, T/C [22]: 6.92% | viability, T/C [23]: 0.05% | viability, T/C [24]: 0.3% | viability, T/C [25]: 13.3% | viability, T/C [26]: 17.1% | viability, T/C [27]: 14.2% | viability, T/C [28]: 0.81% | viability, T/C [29]: 0.07% | viability, T/C [30]: 0.15% | viability, T/C [31]: 17.1% | viability, T/C [32]: 15.1% | viability, T/C [33]: 15.2% | viability, T/C [34]: 0.07% | viability, T/C [35]: 0.11% | viability, T/C [36]: 0.15%

Structure (SMILES): C#Cc1c(F)ccc2cc(O)cc(-c3ncc4c(N5CC6CCC(C5)N6)nc(OCC56CCCN5CC(F)C6)nc4c3F)c12 (stereo unspecified) + Cc1[nH]c2ccc(F)cc2c1-c1nc2c3cccnc3c3ncccc3c2[nH]1
pIC50 (second compound 0.0316 µM): 5.19 | pIC50 (second compound 0.1 µM): 5.32 | pIC50 (second compound 0.316 µM): 5.34 | pIC50 (second compound 1 µM): 5.76 | pIC50 (second compound 3.16 µM): > 7.50 | pIC50 (second compound 10 µM): > 7.50 | viability, T/C [1]: 88.5% | viability, T/C [2]: 99.4% | viability, T/C [3]: 87.9% | viability, T/C [4]: 78.7% | viability, T/C [5]: 66.7% | viability, T/C [6]: 39.9% | viability, T/C [7]: 108% | viability, T/C [8]: 93.7% | viability, T/C [9]: 80.7% | viability, T/C [10]: 59.5% | viability, T/C [11]: 59.8% | viability, T/C [12]: 41.2% | viability, T/C [13]: 74.3% | viability, T/C [14]: 61% | viability, T/C [15]: 72.8% | viability, T/C [16]: 78.6% | viability, T/C [17]: 56.1% | viability, T/C [18]: 36.7% | viability, T/C [19]: 53% | viability, T/C [20]: 78.2% | viability, T/C [21]: 80.5% | viability, T/C [22]: 51.8% | viability, T/C [23]: 44.2% | viability, T/C [24]: 28.1% | viability, T/C [25]: 24.1% | viability, T/C [26]: 23.5% | viability, T/C [27]: 23.5% | viability, T/C [28]: 22.6% | viability, T/C [29]: 19.3% | viability, T/C [30]: 12.7% | viability, T/C [31]: 31% | viability, T/C [32]: 39.9% | viability, T/C [33]: 38.8% | viability, T/C [34]: 28.5% | viability, T/C [35]: 24.9% | viability, T/C [36]: 15.8%

Structure (SMILES): C#Cc1c(F)ccc2cc(O)cc(-c3ncc4c(N5CC6CCC(C5)N6)nc(OCC56CCCN5CC(F)C6)nc4c3F)c12 (stereo unspecified) + CN(C)c1ccc(Nc2c3ccc(NC(=O)CCN4CCCC4)cc3nc3cc(NC(=O)CCN4CCCC4)ccc23)cc1
pIC50 (second compound 0.0316 µM): 5.22 | pIC50 (second compound 0.1 µM): 5.49 | pIC50 (second compound 0.316 µM): 5.41 | pIC50 (second compound 1 µM): 5.61 | pIC50 (second compound 3.16 µM): > 7.50 | pIC50 (second compound 10 µM): > 7.50 | viability, T/C [1]: 109% | viability, T/C [2]: 84.1% | viability, T/C [3]: 95.4% | viability, T/C [4]: 69.9% | viability, T/C [5]: 72.2% | viability, T/C [6]: 37.2% | viability, T/C [7]: 98.6% | viability, T/C [8]: 94.3% | viability, T/C [9]: 85.6% | viability, T/C [10]: 68% | viability, T/C [11]: 49.4% | viability, T/C [12]: 42.5% | viability, T/C [13]: 93% | viability, T/C [14]: 99.3% | viability, T/C [15]: 85.7% | viability, T/C [16]: 62.1% | viability, T/C [17]: 59.1% | viability, T/C [18]: 34.9% | viability, T/C [19]: 61% | viability, T/C [20]: 75.2% | viability, T/C [21]: 70.5% | viability, T/C [22]: 61.8% | viability, T/C [23]: 46.5% | viability, T/C [24]: 29.8% | viability, T/C [25]: 41.7% | viability, T/C [26]: 37.2% | viability, T/C [27]: 38% | viability, T/C [28]: 36.4% | viability, T/C [29]: 22.7% | viability, T/C [30]: 15.7% | viability, T/C [31]: 5.81% | viability, T/C [32]: 4.81% | viability, T/C [33]: 4.89% | viability, T/C [34]: 3.78% | viability, T/C [35]: 3.21% | viability, T/C [36]: 0.66%
